Reference: ChEMBL document CHEMBL1201862, “PubChem BioAssay data set” (2004)
Calls of active or inactive are those of the source.

Columns and labels:
cells [1] = assay type: functional
Salmon testes DNA = test: DNA intercalators displacing acridine orange, dose response, artefact control for KSHV LANA DNA-binding inhibitor project, biochemical, fluorescence polarization, cherry-picked samples, set 2 (AID 504727); design: species or system Salmonidae
HeLa = test: HeLa cell cytotoxicity, dose response, cytotoxicity control, 24 h, cherry-picked samples (AID 504726); assay type: functional, cell-based; details: Homo sapiens;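 further: potency for cytotoxicity as loss of luminescence signal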
cells [2] = assay type: functional, cell-based
cells [3] = assay type: functional, cell-based; remark: listed apart in the source
[4] = target: T1, Tyrosine-protein phosphatase non-receptor type 7 (Homo sapiens, UniProt P35236); assay type: functional
T1 sequence (P35236 whole entry): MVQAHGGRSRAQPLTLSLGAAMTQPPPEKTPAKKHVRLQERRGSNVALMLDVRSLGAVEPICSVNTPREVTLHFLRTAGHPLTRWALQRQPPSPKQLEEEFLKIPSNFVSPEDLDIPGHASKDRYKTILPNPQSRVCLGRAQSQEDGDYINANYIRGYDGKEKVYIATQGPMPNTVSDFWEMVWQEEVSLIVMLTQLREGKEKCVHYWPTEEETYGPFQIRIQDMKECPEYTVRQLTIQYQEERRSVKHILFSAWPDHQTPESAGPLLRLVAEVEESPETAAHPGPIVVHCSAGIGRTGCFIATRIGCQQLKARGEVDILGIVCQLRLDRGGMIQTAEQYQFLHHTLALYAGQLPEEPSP

[5] = target: T2, Dual specificity protein phosphatase 6 (Rattus norvegicus, UniProt Q64346); test: MKP-3 phosphatase inhibitors, primary screen, biochemical, rat enzyme, in vitro (AID 425)
T2 sequence (Q64346 whole entry): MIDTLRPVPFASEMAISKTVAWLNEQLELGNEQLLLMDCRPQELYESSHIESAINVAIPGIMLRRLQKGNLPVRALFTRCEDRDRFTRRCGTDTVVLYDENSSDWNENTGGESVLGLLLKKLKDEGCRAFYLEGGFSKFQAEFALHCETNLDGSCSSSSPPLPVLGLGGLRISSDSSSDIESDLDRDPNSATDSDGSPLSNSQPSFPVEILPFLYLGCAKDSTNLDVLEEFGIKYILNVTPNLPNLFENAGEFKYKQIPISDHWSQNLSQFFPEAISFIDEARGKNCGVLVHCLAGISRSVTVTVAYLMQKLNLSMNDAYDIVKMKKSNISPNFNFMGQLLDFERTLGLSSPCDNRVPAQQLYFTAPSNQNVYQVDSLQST

[6] = target: T3, E3 ubiquitin-protein ligase XIAP (Homo sapiens, UniProt P98170); test: XIAP antagonists, biochemical, IAP family, fluorescence polarization (AID 1018); assay type: functional
[7] = target: T2, Dual specificity protein phosphatase 6; assay type: functional
[8] = target: Heat shock 70 kDa protein 1A (Homo sapiens, UniProt P0DMV8); test: Hsp70 inhibitors, SAR follow-up, biochemical, fluorescence polarization (AID 1072)
Large T antigen = Large T antigen (Simian virus 40, UniProt P03070); assay type: functional, Betapolyomavirus macacae;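 further: Confirmatory-stage PubChem screen for compounds that inhibit SV40 T antigen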
Bcl-2-like protein 10 = target: T4, Bcl-2-like protein 10 (Homo sapiens, UniProt Q9HD36); test: displacers of TR3 peptide from Bcl-B, primary screen, selectivity assay for Bfl-1 inhibitor project, biochemical, fluorescence polarization, FITC-TR3 peptide (AID 748);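 further: fluorescence polarization from a fluorescein-labelled TR3 peptide binding purified Bcl-B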
T4 sequence (Q9HD36 whole entry): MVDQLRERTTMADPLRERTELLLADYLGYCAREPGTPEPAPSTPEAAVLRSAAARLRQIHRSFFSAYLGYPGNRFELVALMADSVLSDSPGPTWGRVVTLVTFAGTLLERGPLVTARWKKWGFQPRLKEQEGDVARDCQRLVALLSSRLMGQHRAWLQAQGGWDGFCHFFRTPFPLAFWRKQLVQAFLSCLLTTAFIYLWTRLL

[9] = target: Glyceraldehyde-3-phosphate dehydrogenase (Homo sapiens, UniProt P04406)
[10] = target: Heat shock cognate 71 kDa protein (Homo sapiens, UniProt P11142); test: In Vitro Hsc70 Dose Response Fluorescence Polarization Assay. [Related pubchem assays: 1072 ]
[11] = target: T2, Dual specificity protein phosphatase 6
[12] = target: T3, E3 ubiquitin-protein ligase XIAP; test: Counter Screen using XIAP-Bir3 for Chemical Antagonists of Bir1/2 domains of IAP-family anti-apoptotic proteins. [Related pubchem assays (depositor defined):AID1018, AID1449, AID1514, AID1638, AID1749, AID1750, AID488957, AID488963]
[13] = target: Eukaryotic translation initiation factor 4E (Mus musculus, UniProt P63073); test: eIF4E–eIF4G protein interaction inhibitors, dose response, biochemical, TR-FRET (AID 855); assay type: functional;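 further: potency for disrupting eIF4E binding to eIF4GI seen as loss of FRET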
[14] = target: Induced myeloid leukemia cell differentiation protein Mcl-1 (Homo sapiens, UniProt Q07820); assay type: functional
[15] = target: Transitional endoplasmic reticulum ATPase (Homo sapiens, UniProt P55072, C522A); test: Luminescence counterscreen assay for p97 inhibitors: dose response biochemical high throughput screening assay to identify inhibitors of the C522A mutant p97 ATPase: synthesized compounds. [Related pubchem assays: 1481, 1517, 1551 ]
[16] = target: T5, Ubiquitin-conjugating enzyme E2 N (Homo sapiens, UniProt P61088); assay type: functional;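 further: Dose-response confirmation in a TR-FRET assay detecting UBC13-driven polyubiquitin chain formation, inhibition measured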
T5 sequence (P61088 whole entry): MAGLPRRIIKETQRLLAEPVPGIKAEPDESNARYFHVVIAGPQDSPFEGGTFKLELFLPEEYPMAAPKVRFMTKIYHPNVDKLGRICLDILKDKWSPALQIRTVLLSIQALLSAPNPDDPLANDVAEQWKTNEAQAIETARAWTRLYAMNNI

[17] = Luminescence Cell-Based Dose Retest to Confirm Inhibitors of Cancer Stem Cells. [Related pubchem assays (depositor defined):AID2717, AID2721]; assay type: functional; details: Homo sapiens
[18] = target: Neurotensin receptor type 1 (Homo sapiens, UniProt P30989); assay type: functional;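 further: Image-based confirmatory dose-response assay measuring agonist activity at NTR1; NTR1-expressing U2OS osteosarcoma cells imaged for beta-arrestin GFP spot formation; agonist potency where compounds increase beta-arrestin recruitment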
[19] = target: Transitional endoplasmic reticulum ATPase (Homo sapiens, UniProt P55072); test: Luminescence dose response biochemical high throughput screening assay for inhibitors of the p97 ATPase: synthesized compounds. [Related pubchem assays: 1481, 1517 ]
Collagenase 3 = Collagenase 3 (Homo sapiens, UniProt P45452); test: MMP13 inhibition and MMP selectivity, late-stage follow-up, selectivity assay for MMP13 inhibitor project, biochemical, probe development, late stage results, panel member MMP-13 [IC50 Assay] (AID 2067)
Neutrophil collagenase = Neutrophil collagenase (Homo sapiens, UniProt P22894); test: MMP13 inhibition and MMP selectivity, late-stage follow-up, selectivity assay for MMP13 inhibitor project, biochemical, probe development, late stage results, panel member MMP-8 [IC50 Assay] (AID 2067)
[20] = target: G2/mitotic-specific cyclin-B1 (Homo sapiens, UniProt P14635); test: G2/M cell cycle arrest in HeLa, late-stage follow-up, mechanism study for Wee1 degradation inhibitor project, FACS, panel member Cyclin B Degradation (AID 2088)
Wee1-like protein kinase = Wee1-like protein kinase (Homo sapiens, UniProt P30291); test: G2/M cell cycle arrest in HeLa, late-stage follow-up, mechanism study for Wee1 degradation inhibitor project, FACS, panel member Wee1 Degradation (AID 2088)
[21] = target: T6, Neuropeptides B/W receptor type 1 (Homo sapiens, UniProt P48145); test: GPR7 antagonist potency, late-stage follow-up, cell-based, fluorescence, dose response (AID 463251); assay type: functional
T6 sequence (P48145 whole entry): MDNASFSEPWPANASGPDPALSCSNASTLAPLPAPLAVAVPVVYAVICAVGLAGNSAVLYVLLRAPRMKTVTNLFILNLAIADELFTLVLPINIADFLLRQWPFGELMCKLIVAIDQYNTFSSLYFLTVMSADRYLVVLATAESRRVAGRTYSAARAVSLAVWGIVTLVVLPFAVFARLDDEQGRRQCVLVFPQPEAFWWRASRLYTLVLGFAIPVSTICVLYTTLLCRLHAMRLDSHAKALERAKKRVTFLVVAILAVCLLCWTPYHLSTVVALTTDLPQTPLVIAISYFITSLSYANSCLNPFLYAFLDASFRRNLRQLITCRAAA

[22] = target: Melanin-concentrating hormone receptor 1 (Homo sapiens, UniProt Q99705); test: Late-stage fluorescence-based counterscreen for antagonists of the G-protein coupled receptor 7 (GPR7): cell-based dose response assay to identify antagonists of the melanin-concentrating hormone receptor 1 (MCHR1). [Related pubchem assays (depositor defined):AID1861, AID1880, AID1952, AID2148, AID2251, AID2257, AID485339]; assay type: functional;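 further: stimulated with 30 nM MCH peptide agonist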
INS1 = test: beta cell apoptosis inhibitors, cytokine rescue, dose response, luminescence, retest (AID 449756); assay type: functional, cell-based; details: Rattus norvegicus;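 further: cell death triggered by IL-1 beta plus TNF-alpha plus IFN-gamma mixture; protective hits raise ATP signal compared with cytokine alone wells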
[23] = C. albicans growth with fluconazole, confirmation, fluorescence, retest (AID 2467); assay type: functional, cell-based
Beta-galactosidase [24] = target: T7, Beta-galactosidase (Escherichia coli, UniProt Q8VNN2); test: Dose response counterscreen for EBI2 assay utilizing the enzyme, b-galactosidase.; assay type: functional
Nonstructural protein 1 = Nonstructural protein 1 (Influenza A virus, UniProt Q194T2); assay type: functional, Influenza A virus (A/California/07/2009(H1N1))
[25] = target: ATP-dependent molecular chaperone HSP82 (Candida albicans (strain WO-1) (Yeast), UniProt C4YTQ8); test: loss of DOC-induced GRE-beta-galactosidase reporter signal, dose response, Hsp90 inhibitor project, S. cerevisiae, luminescence (AID 2400); assay type: functional, cell-based;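 further: beta-galactosidase luminescence from glucocorticoid response element reporter as proxy for Hsp90 function; inhibitor potency where signal loss means Hsp90 inhibition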
[26] = target: T8, Serine/threonine-protein phosphatase (Candida dubliniensis (strain CD36 / CBS 7987 / NCPF 3949 / NRRLY-17841) (Yeast), UniProt B9W6M3); test: calcineurin pathway inhibitors in yeast reporter, dose response, S. cerevisiae, CDRE-lacZ, luminescence, secondary (AID 2388); assay type: functional, cell-based;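 further: yeast reporter cells carrying a calcineurin-responsive lacZ construct stimulated with calcium chloride; luminescent beta-galactosidase reporter signal in whole cells rather than isolated phosphatase activity; potency for inhibition where a drop in reporter signal means calcineurin blockade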
T8 sequence (B9W6M3 whole entry): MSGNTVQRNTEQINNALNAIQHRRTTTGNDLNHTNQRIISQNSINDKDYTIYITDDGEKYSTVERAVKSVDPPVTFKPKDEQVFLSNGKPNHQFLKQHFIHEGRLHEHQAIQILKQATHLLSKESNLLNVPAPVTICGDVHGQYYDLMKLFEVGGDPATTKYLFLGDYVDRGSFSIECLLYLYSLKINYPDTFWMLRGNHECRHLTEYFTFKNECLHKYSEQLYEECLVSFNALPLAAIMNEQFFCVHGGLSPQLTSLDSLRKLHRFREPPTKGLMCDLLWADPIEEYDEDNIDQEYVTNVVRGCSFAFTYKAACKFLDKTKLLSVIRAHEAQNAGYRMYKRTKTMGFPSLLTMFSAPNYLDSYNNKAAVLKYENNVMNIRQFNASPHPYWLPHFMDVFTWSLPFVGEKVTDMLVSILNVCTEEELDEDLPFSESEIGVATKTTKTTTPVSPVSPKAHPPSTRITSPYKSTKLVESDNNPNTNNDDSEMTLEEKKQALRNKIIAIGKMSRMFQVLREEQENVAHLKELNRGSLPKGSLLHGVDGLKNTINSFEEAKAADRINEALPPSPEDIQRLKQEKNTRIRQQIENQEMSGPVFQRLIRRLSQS

[27] = NIH-3T3 fibroblast cytotoxicity, dose response, cytotoxicity control, cell-based, fluorescence, Alamar Blue, secondary assay (AID 2327); assay type: functional;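 further: NIH-3T3 mouse fibroblasts cultured with fluconazole at 8 µg/mL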
Vero = Vero cell cytotoxicity, cytotoxicity control for flavivirus capping enzyme inhibitors (AID 588742); assay type: functional; details: Chlorocebus sabaeus
[28] = NIH-3T3 fibroblast cytotoxicity, dose response, cytotoxicity control for antifungal single agent project, cell-based, Alamar Blue, dry powder (AID 602188); assay type: functional
Beta-galactosidase [29] = target: T7, Beta-galactosidase; assay type: functional
[30] = target: T9, Kappa-type opioid receptor (Homo sapiens, UniProt P41145); assay type: functional
[31] = target: Heat shock protein HSP 90-alpha (Homo sapiens, UniProt P07900); assay type: functional, organism-based
[32] = target: T9, Kappa-type opioid receptor; assay type: functional; remark: listed apart in the source

T3 sequence (P98170 whole entry): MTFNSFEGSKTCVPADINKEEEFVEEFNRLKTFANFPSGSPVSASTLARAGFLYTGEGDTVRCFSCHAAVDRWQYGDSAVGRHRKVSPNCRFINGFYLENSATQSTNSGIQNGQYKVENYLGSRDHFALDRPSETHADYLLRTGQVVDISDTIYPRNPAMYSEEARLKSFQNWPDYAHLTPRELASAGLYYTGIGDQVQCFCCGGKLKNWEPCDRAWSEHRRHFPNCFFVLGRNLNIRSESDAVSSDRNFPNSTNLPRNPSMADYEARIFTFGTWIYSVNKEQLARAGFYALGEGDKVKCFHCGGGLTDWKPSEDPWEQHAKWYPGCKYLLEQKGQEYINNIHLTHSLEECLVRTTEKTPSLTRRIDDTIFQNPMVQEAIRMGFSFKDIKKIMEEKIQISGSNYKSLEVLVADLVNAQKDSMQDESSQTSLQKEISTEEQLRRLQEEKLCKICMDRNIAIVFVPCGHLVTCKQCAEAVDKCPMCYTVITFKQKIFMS
T7 sequence (Q8VNN2 whole entry): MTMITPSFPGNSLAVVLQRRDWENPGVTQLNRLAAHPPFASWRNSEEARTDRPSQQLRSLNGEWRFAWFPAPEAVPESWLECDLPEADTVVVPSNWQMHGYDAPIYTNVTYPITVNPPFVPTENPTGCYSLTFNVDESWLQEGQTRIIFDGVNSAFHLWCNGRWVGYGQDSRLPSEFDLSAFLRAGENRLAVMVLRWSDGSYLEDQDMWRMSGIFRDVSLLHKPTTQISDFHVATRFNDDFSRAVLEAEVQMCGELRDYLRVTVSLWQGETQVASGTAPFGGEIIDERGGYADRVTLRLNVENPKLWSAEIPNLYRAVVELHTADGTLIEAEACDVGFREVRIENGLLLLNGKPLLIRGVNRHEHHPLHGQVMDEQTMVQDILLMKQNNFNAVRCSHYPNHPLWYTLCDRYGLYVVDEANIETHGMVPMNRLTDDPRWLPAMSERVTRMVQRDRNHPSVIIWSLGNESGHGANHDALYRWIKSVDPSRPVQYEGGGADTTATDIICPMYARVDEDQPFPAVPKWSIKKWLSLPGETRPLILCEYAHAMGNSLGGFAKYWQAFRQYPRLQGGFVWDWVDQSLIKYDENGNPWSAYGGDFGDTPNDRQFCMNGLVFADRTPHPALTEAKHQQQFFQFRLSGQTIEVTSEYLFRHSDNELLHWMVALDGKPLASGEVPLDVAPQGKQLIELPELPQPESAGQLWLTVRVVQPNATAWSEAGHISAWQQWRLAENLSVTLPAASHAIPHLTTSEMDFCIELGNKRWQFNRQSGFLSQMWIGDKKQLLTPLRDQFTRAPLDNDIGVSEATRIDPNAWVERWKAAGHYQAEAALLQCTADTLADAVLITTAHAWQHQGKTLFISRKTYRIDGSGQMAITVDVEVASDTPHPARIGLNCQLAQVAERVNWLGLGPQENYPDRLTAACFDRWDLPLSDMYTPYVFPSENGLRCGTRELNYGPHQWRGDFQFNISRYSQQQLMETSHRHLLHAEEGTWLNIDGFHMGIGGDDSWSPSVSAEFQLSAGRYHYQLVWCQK
T9 sequence (P41145 whole entry): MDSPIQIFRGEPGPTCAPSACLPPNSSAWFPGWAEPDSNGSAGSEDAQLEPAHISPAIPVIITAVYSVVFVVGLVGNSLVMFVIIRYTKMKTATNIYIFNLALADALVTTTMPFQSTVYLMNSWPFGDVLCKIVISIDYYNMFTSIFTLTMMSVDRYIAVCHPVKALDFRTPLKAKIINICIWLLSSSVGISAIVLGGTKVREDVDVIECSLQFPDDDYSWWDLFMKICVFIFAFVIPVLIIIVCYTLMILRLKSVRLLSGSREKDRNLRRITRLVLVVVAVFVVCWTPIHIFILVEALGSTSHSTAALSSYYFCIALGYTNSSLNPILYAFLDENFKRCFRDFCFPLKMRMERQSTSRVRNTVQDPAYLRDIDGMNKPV
Sequence of Transitional endoplasmic reticulum ATPase (Homo sapiens, UniProt P55072, C522A) (P55072 2-806 C522A limits assumed): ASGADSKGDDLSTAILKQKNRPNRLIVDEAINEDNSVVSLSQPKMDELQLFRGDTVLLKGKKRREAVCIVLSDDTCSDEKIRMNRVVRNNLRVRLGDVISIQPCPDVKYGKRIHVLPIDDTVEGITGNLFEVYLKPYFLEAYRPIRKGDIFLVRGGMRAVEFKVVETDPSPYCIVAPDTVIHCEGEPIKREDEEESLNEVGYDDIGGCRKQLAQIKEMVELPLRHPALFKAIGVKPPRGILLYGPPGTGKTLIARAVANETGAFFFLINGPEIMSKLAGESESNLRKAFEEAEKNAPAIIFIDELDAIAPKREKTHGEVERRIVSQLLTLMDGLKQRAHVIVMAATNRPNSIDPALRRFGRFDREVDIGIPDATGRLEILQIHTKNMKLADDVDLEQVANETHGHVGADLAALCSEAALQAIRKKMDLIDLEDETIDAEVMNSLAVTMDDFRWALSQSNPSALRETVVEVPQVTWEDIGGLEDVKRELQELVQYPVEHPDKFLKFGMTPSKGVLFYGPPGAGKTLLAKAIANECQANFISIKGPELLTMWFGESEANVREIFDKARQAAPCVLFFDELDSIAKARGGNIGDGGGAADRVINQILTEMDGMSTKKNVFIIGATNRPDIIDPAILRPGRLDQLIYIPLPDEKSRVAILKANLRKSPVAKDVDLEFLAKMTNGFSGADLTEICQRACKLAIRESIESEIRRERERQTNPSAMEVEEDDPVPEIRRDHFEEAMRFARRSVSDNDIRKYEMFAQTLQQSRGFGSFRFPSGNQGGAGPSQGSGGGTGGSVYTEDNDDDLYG
Sequence of Neutrophil collagenase (P22894 whole entry): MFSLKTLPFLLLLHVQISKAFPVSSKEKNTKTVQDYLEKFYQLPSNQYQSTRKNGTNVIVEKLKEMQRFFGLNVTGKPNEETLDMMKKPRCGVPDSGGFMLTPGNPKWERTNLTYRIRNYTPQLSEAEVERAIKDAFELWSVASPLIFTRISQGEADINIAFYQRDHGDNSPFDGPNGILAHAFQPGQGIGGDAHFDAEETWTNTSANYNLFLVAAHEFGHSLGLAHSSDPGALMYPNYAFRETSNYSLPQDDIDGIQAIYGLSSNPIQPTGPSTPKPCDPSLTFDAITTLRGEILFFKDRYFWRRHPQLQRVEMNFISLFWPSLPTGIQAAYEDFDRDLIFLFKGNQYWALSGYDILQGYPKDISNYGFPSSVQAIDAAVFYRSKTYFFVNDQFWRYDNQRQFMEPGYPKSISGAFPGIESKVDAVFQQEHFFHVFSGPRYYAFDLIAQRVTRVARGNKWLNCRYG
Sequence of Neurotensin receptor type 1 (P30989 whole entry): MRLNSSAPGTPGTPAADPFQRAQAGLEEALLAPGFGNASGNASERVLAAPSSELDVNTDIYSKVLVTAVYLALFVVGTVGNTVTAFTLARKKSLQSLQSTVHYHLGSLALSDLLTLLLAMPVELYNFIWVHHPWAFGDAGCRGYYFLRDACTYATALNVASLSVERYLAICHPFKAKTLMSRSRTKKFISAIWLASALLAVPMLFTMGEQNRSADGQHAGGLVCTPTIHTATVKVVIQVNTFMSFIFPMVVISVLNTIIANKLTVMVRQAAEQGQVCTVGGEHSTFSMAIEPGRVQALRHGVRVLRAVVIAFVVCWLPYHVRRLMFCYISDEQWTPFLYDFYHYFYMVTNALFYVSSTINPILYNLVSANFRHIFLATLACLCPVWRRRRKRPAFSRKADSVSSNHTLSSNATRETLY
Sequence of Glyceraldehyde-3-phosphate dehydrogenase (P04406 whole entry): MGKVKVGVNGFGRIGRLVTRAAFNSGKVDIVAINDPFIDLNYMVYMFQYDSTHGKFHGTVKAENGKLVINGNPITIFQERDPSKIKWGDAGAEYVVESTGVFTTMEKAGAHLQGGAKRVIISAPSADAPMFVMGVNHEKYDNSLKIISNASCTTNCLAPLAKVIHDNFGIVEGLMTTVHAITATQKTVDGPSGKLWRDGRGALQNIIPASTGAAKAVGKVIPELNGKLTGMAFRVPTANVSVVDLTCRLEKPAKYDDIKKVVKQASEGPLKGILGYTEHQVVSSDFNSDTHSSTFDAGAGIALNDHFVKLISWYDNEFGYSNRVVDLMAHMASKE
Sequence of Heat shock cognate 71 kDa protein (P11142 whole entry): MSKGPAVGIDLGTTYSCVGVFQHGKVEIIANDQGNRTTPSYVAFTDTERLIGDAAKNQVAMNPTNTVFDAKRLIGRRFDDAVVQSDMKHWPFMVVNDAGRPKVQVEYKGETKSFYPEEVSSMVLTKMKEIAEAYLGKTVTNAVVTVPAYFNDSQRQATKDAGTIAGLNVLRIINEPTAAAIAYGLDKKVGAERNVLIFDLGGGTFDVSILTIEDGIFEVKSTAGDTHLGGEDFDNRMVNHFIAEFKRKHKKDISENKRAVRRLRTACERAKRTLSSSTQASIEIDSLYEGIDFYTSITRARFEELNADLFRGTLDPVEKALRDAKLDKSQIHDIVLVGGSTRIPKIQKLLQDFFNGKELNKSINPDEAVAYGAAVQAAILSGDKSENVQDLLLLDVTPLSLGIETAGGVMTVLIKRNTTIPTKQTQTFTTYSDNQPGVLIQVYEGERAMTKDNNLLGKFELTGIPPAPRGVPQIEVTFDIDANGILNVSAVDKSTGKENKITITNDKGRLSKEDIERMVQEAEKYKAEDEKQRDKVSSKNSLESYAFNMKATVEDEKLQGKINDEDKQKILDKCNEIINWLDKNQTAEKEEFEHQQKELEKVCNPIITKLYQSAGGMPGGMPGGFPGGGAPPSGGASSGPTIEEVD
Sequence of Eukaryotic translation initiation factor 4E (P63073 whole entry): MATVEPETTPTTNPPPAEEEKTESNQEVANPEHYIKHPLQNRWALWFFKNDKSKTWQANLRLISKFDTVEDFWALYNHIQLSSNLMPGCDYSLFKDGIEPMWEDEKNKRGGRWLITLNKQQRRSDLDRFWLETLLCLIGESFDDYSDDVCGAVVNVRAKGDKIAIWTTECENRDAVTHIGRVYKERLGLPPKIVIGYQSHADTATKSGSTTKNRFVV

CCOC(=O)c1c(C)nc2cc(C)ccn12
IC50 (cells [1]): 28.4 µM (active)
AC50 (Salmon testes DNA): 285 µM (active)
AC50 (HeLa): 69.7 µM (active)
EC50 (cells [2]): > 350 µM (not active)
EC50 (cells [3]): > 350 µM (not active)

CCOC(=O)c1ccc2c(c1)C1C=CCC1C(C(=O)O)N2 (configuration not stated)
IC50 [4]: 2.18 µM (active)
IC50 [5]: > 10 µM (not active)
IC50 [6]: > 100 µM (not active)
IC50 [7]: 9.87 µM (active)
IC50 [8]: 5.56 µM (active)
IC50 (Large T antigen): 14.2 µM (active)
IC50 (Bcl-2-like protein 10): 1.08 µM (active)
IC50 [9]: 95.4 µM (active)
IC50 [10]: 27 µM (active)
IC50 [11]: 14.7 µM (active)
IC50 [12]: > 1.56 µM (inactive)
IC50 [13]: 10.2 µM (active)
IC50 [14]: 0.997 µM (active)

N#Cc1ccc(Nc2nc(-c3ccc(O)cc3O)cs2)cc1C(F)(F)F
IC50 [15]: > 50 µM (not active)
IC50 [16]: > 20 µM (inactive)
AC50 [17]: 4.98 µM (active)
EC50 [18]: 9.59 µM (active)
IC50 [19]: 13.5 µM (not active)

CCCCSc1nc(O)c2c(n1)CCC2
IC50 (Collagenase 3): > 39.8 µM (active)
IC50 (Neutrophil collagenase): > 39.8 µM (active)

Cc1cccc(OCC(=O)Nc2cc(C)nn2-c2nc(C)cc(=O)[nH]2)c1
EC50 [20]: > 49.7 µM (inactive)
EC50 (Wee1-like protein kinase): > 16.6 µM (active)

CCOc1ccc(Oc2cnn(-c3ccc(C)cc3)c(=O)c2Cl)cc1
IC50 [21]: 6.3 µM (active)
IC50 [22]: 18.2 µM (inactive)

C/C(=N\NC(=O)c1cc2ccccc2cc1O)c1ccccn1
AC50 (INS1): 0.958 µM (active)
EC50 [23]: 1.02 µM (active)
IC50 (Beta-galactosidase [24]): 136 µM (inactive)
IC50 (Nonstructural protein 1): 3.77 µM (active)
EC50 [25]: 4.08 µM (active)
EC50 [26]: > 180 µM (inactive)
EC50 [27]: > 150 µM (inactive)
CC50 (Vero): 1.93 µM (active)
AC50 [28]: 0.729 µM (active)
EC50 (Beta-galactosidase [29]): > 31.5 µM (inactive)
IC50 [30]: > 32 µM
AC50 [31]: 6.63 µM (active)
IC50 [32]: 2.14 µM (active)
